Experimental data: ChEMBL document CHEMBL4419169, “Novel Ferroportin Inhibitors” (2018)
Activity calls are given as the source filed them. No cut-off for these calls is given here.

Legend:
[1] = target: T1, Ferroportin (Mus musculus) (UniProt Q9JHI9); assay: Inhibition of ferroportin in mouse J774 cells assessed as induce ferroportin ubiquitination and degradation at 0.5 uM incubated for 10 mins by immunoprecipitation assay; assay type: cell-based
T1 sequence (whole entry): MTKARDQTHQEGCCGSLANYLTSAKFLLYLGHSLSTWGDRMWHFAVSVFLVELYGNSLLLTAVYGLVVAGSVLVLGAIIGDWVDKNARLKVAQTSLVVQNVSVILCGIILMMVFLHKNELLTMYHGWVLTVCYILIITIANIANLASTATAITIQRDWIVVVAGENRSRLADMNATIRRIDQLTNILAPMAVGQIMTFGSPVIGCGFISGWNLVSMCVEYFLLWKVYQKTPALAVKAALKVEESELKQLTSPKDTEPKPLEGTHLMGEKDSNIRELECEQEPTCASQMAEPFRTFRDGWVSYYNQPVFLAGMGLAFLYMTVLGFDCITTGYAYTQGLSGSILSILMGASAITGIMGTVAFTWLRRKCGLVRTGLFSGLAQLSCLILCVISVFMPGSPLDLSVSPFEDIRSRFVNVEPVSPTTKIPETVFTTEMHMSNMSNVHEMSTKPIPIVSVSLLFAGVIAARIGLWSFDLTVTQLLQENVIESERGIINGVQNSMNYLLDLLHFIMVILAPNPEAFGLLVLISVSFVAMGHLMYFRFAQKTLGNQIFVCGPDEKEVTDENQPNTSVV

[2] = target: T1, Ferroportin (Mus musculus); assay: Inhibition of ferroportin in mouse J774 cells assessed as induce ferroportin ubiquitination and degradation at 0.5 uM incubated for 120 mins by immunoprecipitation assay; assay type: cell-based
Mus musculus [3] = assay: Disease modifying capacity in mouse model of transfusion-independent beta-thalassemia intermedia assessed as prevention of liver [58Fe] loading at 60 mg/kg, po BID for 20 days relative to control; assay type: functional
Mus musculus [4] = assay: Disease modifying capacity in mouse model of transfusion-independent beta-thalassemia intermedia assessed as increase in blood erythrocyte counts at 60 mg/kg, po BID for 20 days relative to control; assay type: functional
Mus musculus [5] = assay: Disease modifying capacity in mouse model of transfusion-independent beta-thalassemia intermedia assessed as increase in hematocrit levels at 60 mg/kg, po BID for 20 days relative to control; assay type: functional
Mus musculus [6] = assay: Prevention of hyperferremia in iron overloaded beta2-microglobulin deficient female mouse assessed as reduction in serum iron level at 60 mg/kg, po measured after 3 hrs relative to control; assay type: functional; design: scale not given: the % may be the effect or the level left
Mus musculus [7] = assay: Disease modifying capacity in mouse model of transfusion-independent beta-thalassemia intermedia assessed as decrease in serum erythropoietin at 60 mg/kg, po BID for 20 days relative to control; assay type: functional; design: scale not given: the % may be the effect or the level left
Mus musculus [8] = assay: Disease modifying capacity in mouse model of transfusion-independent beta-thalassemia intermedia assessed as decrease in leukocyte counts level at 60 mg/kg, po BID for 20 days relative to control; assay type: functional; design: scale not given: the % may be the effect or the level left
Mus musculus [9] = assay: Prevention of hyperferremia in iron overloaded beta2-microglobulin deficient male mouse assessed as reduction in serum iron level at 20 mg/kg, po measured after 3 hrs relative to control; assay type: functional; design: scale not given: the % may be the effect or the level left
Mus musculus [10] = assay: Disease modifying capacity in mouse model of transfusion-independent beta-thalassemia intermedia assessed as decrease in [58Fe] spleen iron content at 20 mg/kg, po BID for 20 days relative to control; assay type: functional; design: scale not given: the % may be the effect or the level left
Mus musculus [11] = assay: Disease modifying capacity in mouse model of transfusion-independent beta-thalassemia intermedia assessed as increase in hematocrit levels at 20 mg/kg, po BID for 20 days relative to control; assay type: functional
Mus musculus [12] = assay: Disease modifying capacity in mouse model of transfusion-independent beta-thalassemia intermedia assessed as decrease in serum erythropoietin at 20 mg/kg, po BID for 20 days relative to control; assay type: functional; design: scale not given: the % may be the effect or the level left
Mus musculus [13] = assay: Induction of hypoferremia in wild type C57BL/6 mouse assessed as decrease in serum iron levels at 10 mg/kg, po measured after 3 hrs post dose; assay type: functional; design: scale not given: the % may be the effect or the level left
Mus musculus [14] = assay: Disease modifying capacity in mouse model of transfusion-independent beta-thalassemia intermedia assessed as decrease in RDW level at 20 mg/kg, po BID for 20 days relative to control; assay type: functional; design: scale not given: the % may be the effect or the level left
Mus musculus [15] = assay: Disease modifying capacity in mouse model of transfusion-independent beta-thalassemia intermedia assessed as decrease in blood reticulocyte counts at 20 mg/kg, po BID for 20 days relative to control; assay type: functional; design: scale not given: the % may be the effect or the level left
Mus musculus [16] = assay: Prevention of hyperferremia in iron overloaded beta2-microglobulin deficient female mouse assessed as reduction in serum iron level at 20 mg/kg, po measured after 3 hrs relative to control; assay type: functional; design: scale not given: the % may be the effect or the level left
Mus musculus [17] = assay: Induction of hypoferremia in wild type C57BL/6 mouse assessed as decrease in serum iron levels at 100 mg/kg, po measured after 3 hrs post dose; assay type: functional; design: scale not given: the % may be the effect or the level left
Mus musculus [18] = assay: Disease modifying capacity in mouse model of transfusion-independent beta-thalassemia intermedia assessed as decrease in RDW level at 60 mg/kg, po BID for 20 days relative to control; assay type: functional; design: scale not given: the % may be the effect or the level left
Mus musculus [19] = assay: Decrease in serum iron in mouse model of transfusion-independent beta-thalassemia intermedia at 60 mg/kg, po BID for 20 days relative to control; assay type: functional; design: scale not given: the % may be the effect or the level left
Mus musculus [20] = assay: Disease modifying capacity in mouse model of transfusion-independent beta-thalassemia intermedia assessed as increase in blood erythrocyte counts at 20 mg/kg, po BID for 20 days relative to control; assay type: functional
Mus musculus [21] = assay: Decrease in serum iron in mouse model of transfusion-independent beta-thalassemia intermedia at 20 mg/kg, po BID for 20 days relative to control; assay type: functional; design: scale not given: the % may be the effect or the level left
[22] = target: T1, Ferroportin (Mus musculus); assay: Inhibition of ferroportin in mouse J774 cells assessed as induce ferroportin ubiquitination and degradation at […] incubated for 120 mins by immunoprecipitation assay; assay type: cell-based
Mus musculus [23] = assay: Disease modifying capacity in mouse model of transfusion-independent beta-thalassemia intermedia assessed as decrease in [58Fe] spleen iron content at 60 mg/kg, po BID for 20 days relative to control; assay type: functional; design: scale not given: the % may be the effect or the level left
Rattus norvegicus [24] = assay: Prevention of iron absorption in anemic Wistar rat model of iron absorption assessed as inhibition of increase in serum iron at 30 mg/kg, po pre-dosed 1 hr before ferrous sulfate dosing and measured 3 hours after iron dosing; assay type: functional
[25] = target: T1, Ferroportin (Mus musculus); assay: Inhibition of ferroportin in mouse J774 cells assessed as induce ferroportin ubiquitination and degradation at […] incubated for 10 mins by immunoprecipitation assay; assay type: cell-based
Mus musculus [26] = assay: Disease modifying capacity in mouse model of transfusion-independent beta-thalassemia intermedia assessed as decrease in bone marrow ROS levels level at 60 mg/kg, po BID for 20 days relative to control; assay type: functional; design: scale not given: the % may be the effect or the level left
Rattus norvegicus [27] = assay: Prevention of iron absorption in anemic Wistar rat model of iron absorption assessed as inhibition of increase in serum iron at 3 mg/kg, po pre-dosed 1 hr before ferrous sulfate dosing and measured 3 hours after iron dosing; assay type: functional
Mus musculus [28] = assay: Disease modifying capacity in mouse model of transfusion-independent beta-thalassemia intermedia assessed as decrease in blood reticulocyte counts at 60 mg/kg, po BID for 20 days relative to control; assay type: functional; design: scale not given: the % may be the effect or the level left
Mus musculus [29] = assay: Induction of hypoferremia in wild type C57BL/6 mouse assessed as decrease in serum iron levels at 30 mg/kg, po measured after 3 hrs post dose; assay type: functional; design: scale not given: the % may be the effect or the level left
Mus musculus [30] = assay: Disease modifying capacity in mouse model of transfusion-independent beta-thalassemia intermedia assessed as prevention of liver [58Fe] loading at 20 mg/kg, po BID for 20 days relative to control; assay type: functional
Mus musculus [31] = assay: Disease modifying capacity in mouse model of transfusion-independent beta-thalassemia intermedia assessed as decrease in spleen erythroferrone-mRNA at 20 mg/kg, po BID for 20 days relative to control; assay type: functional; design: scale not given: the % may be the effect or the level left
Mus musculus [32] = assay: Disease modifying capacity in mouse model of transfusion-independent beta-thalassemia intermedia assessed as decrease in leukocyte counts level at 20 mg/kg, po BID for 20 days relative to control; assay type: functional; design: scale not given: the % may be the effect or the level left
Rattus norvegicus [33] = assay: Prevention of iron absorption in anemic Wistar rat model of iron absorption assessed as inhibition of increase in serum iron at 10 mg/kg, po pre-dosed 1 hr before ferrous sulfate dosing and measured 3 hours after iron dosing; assay type: functional
[34] = target: T1, Ferroportin (Mus musculus); assay: Inhibition of ferroportin in mouse J774 cells assessed as induce ferroportin ubiquitination and degradation at 1.5 uM incubated for 10 mins by immunoprecipitation assay; assay type: cell-based
[35] = target: T1, Ferroportin (Mus musculus); assay: Inhibition of ferroportin in mouse J774 cells assessed as induce ferroportin ubiquitination and degradation at 1.5 uM incubated for 120 mins by immunoprecipitation assay; assay type: cell-based
[36] = target: T1, Ferroportin (Mus musculus); assay: Inhibition of ferroportin in mouse J774 cells assessed as induce ferroportin ubiquitination and degradation at 0.05 uM incubated for 10 mins by immunoprecipitation assay; assay type: cell-based
[37] = target: T1, Ferroportin (Mus musculus); assay: Inhibition of ferroportin in mouse J774 cells assessed as induce ferroportin ubiquitination and degradation at 0.05 uM incubated for 120 mins by immunoprecipitation assay; assay type: cell-based
[38] = target: T1, Ferroportin (Mus musculus); assay: Inhibition of ferroportin in mouse J774 cells assessed as induce ferroportin ubiquitination and degradation at 0.2 uM incubated for 10 mins by immunoprecipitation assay; assay type: cell-based
Mus musculus [39] = assay: Prevention of hyperferremia in iron overloaded beta2-microglobulin deficient male mouse assessed as reduction in serum iron level at 60 mg/kg, po measured after 3 hrs relative to control; assay type: functional; design: scale not given: the % may be the effect or the level left
[40] = target: T1, Ferroportin (Mus musculus); assay: Inhibition of ferroportin in mouse J774 cells assessed as induce ferroportin ubiquitination and degradation at 0.2 uM incubated for 120 mins by immunoprecipitation assay; assay type: cell-based

SMILES: O=C(NCc1ncccc1F)c1coc(CCNCCc2nc3c(Cl)cccc3[nH]2)n1
- inhibition [1]: Active
- inhibition [2]: Active

SMILES: O=C(NCc1ncccc1F)c1cnc(CCNCCc2nc3ccccc3[nH]2)o1
- Activity (Mus musculus [3]): 40%
- Activity (Mus musculus [4]): 8%
- Activity (Mus musculus [5]): 4%
- Activity (Mus musculus [6]): 52%
- Activity (Mus musculus [7]): 78%
- Activity (Mus musculus [8]): 44%
- Activity (Mus musculus [9]): 31%
- Activity (Mus musculus [10]): 14%
- Activity (Mus musculus [11]): 0%
- Activity (Mus musculus [12]): 64%
- Activity (Mus musculus [13]): 0%
- Activity (Mus musculus [14]): 3%
- Activity (Mus musculus [15]): 8%
- Activity (Mus musculus [16]): 31%
- Activity (Mus musculus [17]): 51%
- Activity (Mus musculus [18]): 16%
- Activity (Mus musculus [19]): 66%
- Activity (Mus musculus [20]): 4%
- Activity (Mus musculus [21]): 49%
- inhibition [22]: Active
- Activity (Mus musculus [23]): 48%
- inhibition in vivo at 30 mg/kg (Rattus norvegicus [24]): 64.9%
- inhibition [25]: Active
- Activity (Mus musculus [26]): 45%
- inhibition in vivo at 3 mg/kg (Rattus norvegicus [27]): 2.1%
- Activity (Mus musculus [28]): 39%
- Activity (Mus musculus [29]): 28%
- Activity (Mus musculus [30]): 12%
- Activity (Mus musculus [31]): 82%
- Activity (Mus musculus [32]): 32%
- inhibition in vivo at 10 mg/kg (Rattus norvegicus [33]): 42.6%

SMILES: O=C(NCc1ncccc1F)c1cnn(C2CN(CCc3nc4ccccc4[nH]3)C2)c1
- inhibition [34]: Active
- inhibition [35]: Active

SMILES: O=C(NCc1ncccc1F)c1coc(CCN(CCc2nc3ccccc3[nH]2)CCc2nc3ccccc3[nH]2)n1
- inhibition [36]: Active
- inhibition [37]: Active

SMILES: O=C(NCc1ncccc1F)c1coc(C2CN(CCc3nc4ccccc4[nH]3)C2)n1
- inhibition [38]: Active
- Activity (Mus musculus [6]): 49%
- Activity (Mus musculus [39]): 67%
- inhibition [40]: Active
